Calls of active or inactive are those of the source. How the calls were made is not given here.
Experiment: blockers of mitochondrial fusion, WT vs mutant – cell-based, chemical genetic, wild-type and mutant, confirmation (AID 1361)
Conditions: Cell-based mitochondrial fusion phenotype, imaging
[1] = mutant cells, measured here: mutant cell line IC50

| Compound | IC50 (WT cells) | IC50 [1] |
| --- | --- | --- |
| CCc1ccccc1N(CC)C(=O)CCc1nc(-c2ccc(C)cc2)no1 | 19.6 µM | 23.2 µM |
| O=C(Nc1nnc(C2CC2)s1)c1cc(-c2ccccc2)nn1-c1ccccc1 | 8.41 µM | 17 µM |
| Fc1ccccc1Nc1nc2c(s1)CCc1ccccc1-2 | 17.7 µM | 19.1 µM |
| COc1ccc(-c2noc(-c3ccccc3-c3ccccc3)n2)cc1OC | > 25 µM (inactive) | > 25 µM |
| Cc1ccc(Cn2ncc3c(N4CCN(c5ccccc5C)CC4)ncnc32)cc1 | 7.78 µM | 24.7 µM |
| Cc1ccc(S(=O)(=O)c2c(C)nn(C(C)(C)C)c2OC(=O)CC(C)C)cc1 | 22.5 µM | > 25 µM |
| Cc1cc(=O)[nH]c(SCC(N)=O)c1C#N | > 25 µM (inactive) | > 25 µM |
| N#CC1=C(N)NC(SCc2ccc(Br)cc2)=C(C#N)C12CCCCC2 | > 25 µM (inactive) | > 25 µM |
| CCC(C)c1ccc(NC(=S)Nc2ccc(OC)cc2C)cc1 (stereo not drawn) | 18.5 µM | > 25 µM |
| COc1ccccc1CNC(=O)c1ccc(-c2ccccc2C(F)(F)F)o1 | 21.3 µM | > 25 µM |
| O=C(CSc1ccccc1)NCc1cccnc1 | > 25 µM (inactive) | > 25 µM |
| Cc1onc(-c2ccccc2Cl)c1C(=O)Nc1sc2c(c1C(N)=O)CCC(C)C2 (stereo not drawn) | 12.2 µM | > 25 µM |
| COc1cccc(-c2nc(OC(C)C)c3ccccc3n2)c1 | > 25 µM (inactive) | > 25 µM |
| CCc1ccccc1NC(=O)/C(=C/c1ccccc1)c1ccccc1 | 17.4 µM | > 25 µM |
| CNC(=S)N1CCN(c2ccc([N+](=O)[O-])cc2)CC1 | > 25 µM (inactive) | > 25 µM |
| O=C(CSCC(=O)N1CCCCC1)Nc1nc(-c2ccccc2)c(-c2ccccc2)s1 | 10.7 µM | > 25 µM |
| C/C(N)=C(/C#N)C(=O)COC(=O)c1cc(S(=O)(=O)N2CCCCC2)ccc1C | > 25 µM (inactive) | > 25 µM |
| Cc1cccc2sc(NC(=O)c3ccc(NS(=O)(=O)c4cccs4)cc3)nc12 | > 25 µM (inactive) | > 25 µM |
| Cc1nc(-c2cccc(NS(=O)(=O)c3cccc4ccccc34)c2)cs1 | 15.9 µM | > 25 µM |
| O=C(CNC(=S)N(Cc1ccccc1)Cc1ccccc1F)NCCc1ccccc1 | 20.1 µM | > 25 µM |
| COc1ccccc1NC(=O)COC(=O)c1ccc([N+](=O)[O-])s1 | 6.09 µM | 19.4 µM |

| Compound | IC50 (WT cells) | IC50 [1] |
| --- | --- | --- |
| O=C1/C(=C/c2cccc3ccccc23)CCCc2ccccc21 | 17.3 µM | > 25 µM |
| c1ccc(Cn2c(CNc3nc4ccccc4n3CCN3CCCCC3)nc3ccccc32)cc1 | > 25 µM (inactive) | > 25 µM |
| C=CCn1c(COc2ccccc2-c2ccccc2)nnc1SCC(=O)NC(=O)NCc1ccco1 | > 25 µM (inactive) | > 25 µM |
| COc1ccc(C2CC(c3ccc(Br)cc3)=NN2C(=O)c2cccnc2)cc1 (stereo not drawn) | 18.2 µM | > 25 µM |
| CC(=O)C(N=Nc1ccccc1)(Sc1nnc(-c2ccccc2)n1-c1ccccc1)C(C)=O | 6.6 µM | > 25 µM |
| N#Cc1nc(-c2ccco2)oc1NCc1ccc(F)cc1 | > 25 µM (inactive) | > 25 µM |
| CCCCNC(=S)N(C)/N=C/c1ccc2c(c1)OCO2 | 25 µM (inactive) | > 25 µM |
| CC(=O)Cc1nsc(NC(=O)c2ccc(-c3ccc(Cl)c(Cl)c3)o2)n1 | > 25 µM (inactive) | > 25 µM |
| O=S(=O)(NCCOCCNS(=O)(=O)c1ccccc1)c1ccccc1 | > 25 µM (inactive) | > 25 µM |
| FC(F)(F)c1cc(-c2ccco2)nc(NCc2ccc(Cl)cc2)n1 | 14.8 µM | > 25 µM |
| O=c1[nH][nH]c(-c2ccccc2)c1C=Nc1ccccc1 | > 25 µM (inactive) | > 25 µM |
| Cc1ccc(/C=N/n2cnc3sc(-c4ccccc4)cc3c2=O)o1 | > 25 µM (inactive) | > 25 µM |
| CN1/C(=C\C(=O)Nc2ccc(Br)cc2)C(C)(C)c2ccccc21 | 5.66 µM | 16.7 µM |
| Cc1cc(NC(=O)C2CCCCC2)nc2c1c(=O)oc1ccccc12 | 19.4 µM | 23.8 µM |
| CC1CCCN(C(=O)N2c3ccccc3Sc3ccccc32)C1 (stereo not drawn) | 18.8 µM | > 25 µM |
| CC(NC(=O)/C(=C/c1ccc(OC(F)F)cc1)c1ccccc1)c1ccccc1 (stereo not drawn) | 11.5 µM | > 25 µM |
| OCCNc1c2c(nc3ccccc13)CCCC2 | > 25 µM (inactive) | > 25 µM |
| CCC(C)(C)c1ccc2c(c1)C(=O)c1ccccc1C2=O | 18.6 µM | > 25 µM |
| O=C(N/N=C/c1c[nH]c2ccccc12)c1[nH]c2ccc(Br)cc2c1-c1ccccc1 | 3.58 µM | 14.9 µM |
| CN(c1cccc(NC(=O)Nc2ccc(Cl)cc2)c1)S(C)(=O)=O | > 25 µM (inactive) | > 25 µM |
| N#CC(C#N)=c1ccc2c(c1)N1C3=C(CCCC3)CC3CCCCC31N=2 (stereo not drawn) | 3.41 µM | 7.81 µM |

| Compound | IC50 (WT cells) | IC50 [1] |
| --- | --- | --- |
| O=c1cc(N2CCCCC2)c(-c2ccccc2)nn1Cc1c(Cl)cccc1Cl | 5.39 µM | > 25 µM |
| Cc1sc(NC(=O)c2ccco2)c(C(c2ccc(F)cc2)N2CCN(C)CC2)c1C (stereo not drawn) | 14.4 µM (inactive) | > 12.5 µM |
| CCN(Cc1ccccc1)c1ccc(/C=N/NC(=S)NC(C)C)cc1 | 5.04 µM | > 25 µM |
| CCOc1ccc(-c2[nH]ncc2Oc2ccccc2OCC)c(O)c1 | > 25 µM (inactive) | > 25 µM |
| Cc1ccc(-c2ncccc2OC(=O)C23CC4CC(CC(C4)C2)C3)cc1 | 18.8 µM | > 25 µM |
| Cc1ccc(C)c(NC(=O)c2cc(-c3ccccc3)nn2-c2ccccc2)c1 | 4.99 µM | > 25 µM |
| Cc1cccc(OCCCC(=O)Nc2ccc3c(c2)OCO3)c1 | > 25 µM (inactive) | > 25 µM |
| O=C(Nc1cc(Cl)ccc1Oc1ccccc1)c1ccc(F)cc1 | 22.7 µM | > 25 µM |
| CC[n+]1c(SC)ccc2cc(OC)ccc21 | 11.5 µM | > 25 µM |
| CCCCCCP(=O)(O)c1ccccc1 | > 25 µM (inactive) | > 25 µM |
| CCc1ccccc1N(C1=NCCCS1)S(=O)(=O)c1ccc(C(C)(C)C)cc1 | 7.58 µM | > 25 µM |
| CCc1cccc(CC)c1NC(=S)NCCc1c(C)[nH]c2ccccc12 | 19.8 µM | > 25 µM |
| CCOC(=O)C1=C(C)NC(=S)NC1c1ccc(-c2ccc(Cl)cc2)o1 (stereo not drawn) | 10.4 µM | 24.2 µM |
| O=C(N1CCOCC1)N1CCN(C(c2ccccc2)c2ccccc2)CC1 | > 25 µM (inactive) | > 25 µM |
| Cc1ccccc1NC1=C(Cl)C(=O)N(C2CCCCC2)C1=O | 19.1 µM | > 25 µM |
| CCCN(CCC)C(=O)CC(c1ccccc1)c1cc(Br)ccc1O (stereo not drawn) | 13.7 µM | > 25 µM |
| COc1ccc(C(C)(C)C)cc1NC(=O)Nc1ccc2c(c1)OCO2 | 9.81 µM | 23.3 µM |
| O=C(CCN1C(=O)/C(=C/c2cccs2)SC1=S)NC1=NCCS1 | 12.5 µM | > 25 µM |
| Cc1nc2ccccc2c2oc(C(=O)Nc3ccc(C(C)C)cc3)cc12 | > 25 µM (inactive) | > 25 µM |
| O=C(CSCC(=O)OCn1nnc2ccccc2c1=O)Nc1ccc(Cl)cc1 | > 25 µM (inactive) | > 25 µM |
| CCCCC(=O)NC(c1ccc([N+](=O)[O-])cc1)c1c(O)ccc2ccccc12 (stereo not drawn) | > 25 µM (inactive) | > 25 µM |

| Compound | IC50 (WT cells) | IC50 [1] |
| --- | --- | --- |
| CC(NC(c1ccccc1)c1ccccc1)C(=O)N1CCCc2ccccc21 (stereo not drawn) | 19.9 µM (inactive) | > 12.5 µM |
| O=C(CNC(=S)N(Cc1ccccc1)Cc1ccccc1F)NCc1ccc(Cl)cc1 | 5.67 µM | > 25 µM |
| CC(=O)Oc1ccccc1N(C(C)=O)S(=O)(=O)c1ccc2ccccc2c1 | > 25 µM (inactive) | > 25 µM |
| COC(=O)c1ccccc1NC(=O)CNc1cc(Cl)ccc1N1CCOCC1 | 24.7 µM | > 25 µM |
| COc1ccc2ccc3c(c2c1)N=C[C@]1(O3)N(C)c2ccccc2C1(C)C | 8.07 µM | > 25 µM |
| COC(=O)C1=CN(CCOC23CC4CC(CC(C4)C2)C3)C=C(C(=O)OC)C1c1ccsc1 | 17 µM | > 25 µM |
| CCN1CCN(CCNC(=O)c2ccc(/C=C3/Sc4ccccc4N(Cc4ccccc4C)C3=O)cc2)CC1 | 15.5 µM | > 25 µM |
| CCOc1ccc(NCc2nnc(SCc3ccc(Cl)cc3)n2-c2ccccc2)cc1 | > 25 µM (inactive) | > 25 µM |
| O=C(Nc1ccccc1N1CCOCC1)c1cccc(F)c1 | 9.3 µM | 21.6 µM |
| CC(C)CNS(=O)(=O)c1ccc(S(=O)(=O)N2CCCN(Cc3ccccc3)C2)cc1 | > 25 µM (inactive) | > 25 µM |
| Cc1ccc2c(c1)C1CN(C)CCC1N2C(=O)c1cn(-c2ccccc2)nc1-c1ccccc1 (stereo not drawn) | 23.6 µM | > 25 µM |
| Cc1cc(C)cc(NC(=S)NCCSc2ccc(Cl)cc2)c1 | 4.68 µM | 6.34 µM |
| CC(C)(C)[C@H]1C=C(C(=O)N2CCN(Cc3ccccc3)CC2)O[C@@H](OCc2ccc(CO)cc2)C1 | 21.7 µM | > 25 µM |
| CCOc1ccc(S(=O)(=O)N2CCN(C(=O)c3cc4c(s3)CCCC4)CC2)cc1 | 4.98 µM | > 25 µM |
| Cc1cc(Nc2nc(Cl)c(Cl)cc2Cl)n(-c2ccccc2)n1 | 24.1 µM | > 25 µM |
| Cc1csc(NC(=O)c2cccn2C)n1 | > 25 µM (inactive) | > 25 µM |
| CN1CCN(CCCNC(=O)c2ccc(/C=C3/Sc4ccccc4N(Cc4cccc(Cl)c4)C3=O)cc2)CC1 | 12.1 µM | > 12.5 µM |
| CCOc1cc(C(=O)N(C)Cc2cc3ccccc3[nH]c2=O)cc(OCC)c1OCC | > 25 µM (inactive) | > 25 µM |
| COC(=O)c1ccc(-c2sc3nc(N4CCOCC4)c4c(c3c2N)CCCC4)o1 | > 25 µM (inactive) | > 25 µM |
| O=C(CCc1nc(-c2ccccc2)no1)NCCc1ccccc1 | > 25 µM (inactive) | > 25 µM |
| CCc1cc(-c2n[nH]c(=S)n2-c2ccccc2C)cs1 | > 25 µM (inactive) | > 25 µM |

From PubChem BioAssay AID1361 (SRMLSC, 2008)
